In paper doi:10.1101/513044v1 (biorxiv, 2019) one finds EC50 data, which are given here for 2 compounds.

pEC50: −log10 of the molar value.

One experiment concerns TaOR10 + TaORco. The experiment is described as follows: two-electrode voltage clamp, Xenopus oocytes. The class given is cell-based, Toxorhynchites amboinensis. As to conditions: agonist; co-expressed with TaORco; -80 mV; 10^-10 to 10^-4 M.
A further experiment deals with TaOR2 + TaORco. The experiment is described as follows: two-electrode voltage clamp, Xenopus oocytes. The class given is cell-based, Toxorhynchites amboinensis. To be noted: agonist; co-expressed with TaORco; -80 mV; 10^-10 to 10^-4 M.

Consider `c1ccc2[nH]ccc2c1` [indole], for which the results for the negative-log EC50 (pEC50) in the experiment with TaOR10 + TaORco and in the experiment on TaOR2 + TaORco were 5.04 and 7.06, respectively.
As to `Cc1c[nH]c2ccccc12` [skatole], the pEC50 in the experiment with TaOR10 + TaORco was 7.06; in the experiment on TaOR2 + TaORco, 5.86.
